Values quoted from earlier work, collected in US20060194715A1, “Proteins encoded by ble genes and antibiotics from the bleomycin family” (priority 2002, published 2006).
Values joined by “and” are separate entries in the source; they are usually repeats but may differ in a detail not shown here. Equal entries are not always repeated. Where two headings read alike, the source gives them in different places.

Target: T1, Sh ble protein (Streptoalloteichus hindustanus, UniProt P17493)
T1 sequence (P17493 1-124): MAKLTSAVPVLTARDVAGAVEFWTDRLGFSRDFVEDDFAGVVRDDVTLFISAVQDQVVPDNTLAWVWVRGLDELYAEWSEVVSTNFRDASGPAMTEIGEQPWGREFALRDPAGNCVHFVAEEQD

bleomycin
Kd (first bleomycin molecule bound, read-out: first affinity (single molecule of bleomycin bound to Sh ble dimer)): ~600 nM
Kd (second bleomycin molecule bound, read-out: second affinity (two molecules of bleomycin bound to Sh ble dimer)): ~100 nM and ≤ 100 nM
